Values of other authors in patent publication US4981695A, “Composition comprising L-dopa” (priority 1986, dated 1991).

Assays:
[1] = background
Parkinsons disease = settings: particularly tremor; background

In the case of `N[C@@H](Cc1ccc(O)c(O)c1)C(=O)O` [L-dopa, L-3,4-dihydroxyphenylalanine], the “decomposition by carboxylic elimination” value [1] is listed as “rapidly decomposed by carboxylic elimination”, the “resorption (absorption window)” value ([1]; gastro-intestinal tract) is listed as “resorbed over a restricted part of the gastro-intestinal tract” and the “inhibition of symptoms of the Parkinsons disease” value (Parkinsons disease) is listed as “active at the inhibition of symptoms of the Parkinsons disease”.
In the case of `NC(CO)C(=O)NNCc1ccc(O)c(O)c1O` (centres unmarked) [benserazide], the “L-dopa dose on adding a decarboxylase inhibitor” value [1] is listed as “considerably reduced”.
In the case of `C[C@@](Cc1ccc(O)c(O)c1)(NN)C(=O)O` [carbidopa], the “L-dopa dose on adding a decarboxylase inhibitor” value [1] is given as “considerably reduced”.
